Data on 33 compounds can be found in patent publication US9738642B2, “Triazolopyridine ether derivatives and their use in neurological and pyschiatric disorders” (BRISTOL-MYERS SQUIBB COMPANY, priority 2013, dated 2017).

Structures can show the parent of a compound that is named as a salt.

In general, EC50 refers to the concentration that produces a half-maximal response.

The target in this test is T1, human mGluR2 (Homo sapiens, UniProt Q14416).
T1 construct: expressed in transfected cells; host or cells: HEK293 clonal line
T1 sequence (Q14416 19-872): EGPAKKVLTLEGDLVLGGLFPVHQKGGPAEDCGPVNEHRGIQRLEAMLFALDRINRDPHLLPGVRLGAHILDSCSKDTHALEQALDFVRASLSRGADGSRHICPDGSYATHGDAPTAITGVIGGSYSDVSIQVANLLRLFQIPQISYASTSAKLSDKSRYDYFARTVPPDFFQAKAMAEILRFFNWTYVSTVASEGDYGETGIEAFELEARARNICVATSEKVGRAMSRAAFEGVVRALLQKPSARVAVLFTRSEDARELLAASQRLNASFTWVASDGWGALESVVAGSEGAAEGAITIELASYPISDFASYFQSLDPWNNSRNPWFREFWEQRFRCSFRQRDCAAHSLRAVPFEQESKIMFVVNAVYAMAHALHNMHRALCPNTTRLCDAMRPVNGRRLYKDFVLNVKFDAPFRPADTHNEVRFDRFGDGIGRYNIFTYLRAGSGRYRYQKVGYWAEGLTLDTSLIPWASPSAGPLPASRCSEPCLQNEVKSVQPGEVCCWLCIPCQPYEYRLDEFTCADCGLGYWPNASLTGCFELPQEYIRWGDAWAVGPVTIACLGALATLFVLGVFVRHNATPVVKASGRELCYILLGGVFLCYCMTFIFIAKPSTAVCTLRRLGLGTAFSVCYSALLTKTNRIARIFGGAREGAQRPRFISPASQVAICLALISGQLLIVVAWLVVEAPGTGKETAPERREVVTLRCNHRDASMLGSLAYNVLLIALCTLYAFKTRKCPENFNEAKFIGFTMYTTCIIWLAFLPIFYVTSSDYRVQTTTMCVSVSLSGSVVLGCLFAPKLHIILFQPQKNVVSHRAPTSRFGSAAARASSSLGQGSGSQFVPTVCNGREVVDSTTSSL
Description: mGluR2 cAMP assay. Conditions: clonally expressed human mGluR2 in HEK293; 1 μM forskolin, 1 μM LY-341495, 30 min; CISBIO cAMP kit; read-out: EC50 (nM), activity in mGluR2 cAMP assay. The format is cell-based. On the procedure:
On the day of the assay, media was removed, cells washed with PBS, cells harvested and pelleted by centrifugation. Cell pellets were resuspended in stimulation buffer without forskolin and counted. […] A standard curve was created using a top concentration of cAMP of 1 μM in the stimulation buffer, 1:3 dilutions over 14 points in the absence of cells. […] In house software converted the fluorescence value ratios to units of cAMP concentration, which is then used to calculate % inhibition for each test compound. MGluR2 cAMP Assay Materials and Methods. […] Buffer without forskolin was used as a negative control. Solutions of D2 and cryptate detection reagents from the CISBIO dynamic cAMP kit (62AM4PEJ) were diluted 1:40 in lysis buffer. Lysis buffer consisted of 50 mM Phosphate Buffer pH 7.0, 800 mM Potassium Fluoride, 0.2% BSA, and 1.0% Triton. Assay reaction was terminated by addition of detection reagents in lysis buffer. One hour later, plates were read on a PE Viewlux. Data was extracted, and concentration response curves generated by fitting the data to a standard 4 parameter logistic equation from which EC50 values were determined.
On the technique in general: Cyclic AMP is a second messenger, typically raised through Gs and lowered through Gi signalling.

`Fc1ccc(C2(COc3ccn4c(CC5CC5)nnc4c3C(F)(F)F)CC2)cc1` [Example 30, 3-(Cyclopropylmethyl)-7-((1-(4-fluorophenyl)cyclopropyl)methoxy)-8-(trifluoromethyl)-[1,2,4]triazolo[4,3-a]pyridine]: the concentration giving a half-maximal response (EC50) turned out to be 16 nM.

As to `FC(F)(F)c1c(OC[C@@H]2C[C@H]2c2ccc(Cl)cc2)ccn2c(CC3CC3)nnc12` [Example 33, 7-(((1R,2R)-2-(4-Chlorophenyl)cyclopropyl)methoxy)-3-(cyclopropylmethyl)-8-(trifluoromethyl)-[1,2,4]triazolo[4,3-a]pyridine], the half-maximal effective concentration (EC50) worked out at 4 nM.

`FC(F)(F)c1c(OC[C@H]2C[C@@H]2c2ccc(Cl)cc2)ccn2c(CC3CC3)nnc12` [Example 34, 7-(((1S,2S)-2-(4-Chlorophenyl)cyclopropyl)methoxy)-3-(cyclopropylmethyl)-8-(trifluoromethyl)-[1,2,4]triazolo[4,3-a]pyridine]: the concentration for a half-maximal effect (EC50) is 1.6 nM.

`N#C[C@]1(c2cccc(F)c2)C[C@H](Oc2ccn3c(CC4CC4)nnc3c2C(F)(F)F)C1` [Example 46, (1s,3s)-3-(3-(Cyclopropylmethyl)-8-(trifluoromethyl)-[1,2,4]triazolo[4,3-a]pyridin-7-yloxy)-1-(3-fluorophenyl)cyclobutanecarbonitrile]: the EC50 was found to be 0.5 nM.

For the compound `N#C[C@]1(c2ccc(F)cc2)C[C@H](Oc2ccn3c(CC4CC4)nnc3c2C(F)(F)F)C1` [Example 50, (1s,3s)-3-(3-(Cyclopropylmethyl)-8-(trifluoromethyl)-[1,2,4]triazolo[4,3-a]pyridin-7-yloxy)-1-(4-fluorophenyl)cyclobutanecarbonitrile], the concentration giving a half-maximal response (EC50) was found to be 2.7 nM.

As for `Fc1ccc(C2(COc3ccn4c(CC5CC5)nnc4c3C(F)(F)F)CC2)c(F)c1` [Example 51, 3-(Cyclopropylmethyl)-7-((1-(2,4-difluorophenyl)cyclopropyl)methoxy)-8-(trifluoromethyl)-[1,2,4]triazolo[4,3-a]pyridine], the concentration giving a half-maximal response (EC50) was 43 nM.

As for `Fc1ccc([C@H]2C[C@@H]2COc2ccn3c(CC(F)(F)F)nnc3c2C(F)(F)F)cc1` [Example 52, 7-(((1S,2S)-2-(4-Fluorophenyl)cyclopropyl)methoxy)-3-(2,2,2-trifluoroethyl)-8-(trifluoromethyl)-[1,2,4]triazolo[4,3-a]pyridine], the 50% effective concentration (EC50) is 1.6 nM.

On to `COc1ccccc1[C@]1(C#N)C[C@@H](Oc2ccn3c(CC4CC4)nnc3c2C(F)(F)F)C1` [Example 53, (1s,3s)-3-(3-(Cyclopropylmethyl)-8-(trifluoromethyl)-[1,2,4]triazolo[4,3-a]pyridin-7-yloxy)-1-(2-methoxyphenyl)cyclobutanecarbonitrile], for which the EC50 is 0.3 nM.

With `N#C[C@]1(c2cc(F)cc(F)c2)C[C@H](Oc2ccn3c(CC4CC4)nnc3c2C(F)(F)F)C1` [Example 54, (1s,3s)-3-(3-(Cyclopropylmethyl)-8-(trifluoromethyl)-[1,2,4]triazolo[4,3-a]pyridin-7-yloxy)-1-(3,5-difluorophenyl)cyclobutanecarbonitrile], the concentration giving a half-maximal response (EC50) amounted to 2.2 nM.

In the case of `Fc1cc(F)cc(C2(COc3ccn4c(CC5CC5)nnc4c3C(F)(F)F)CC2)c1` [Example 55, 3-(Cyclopropylmethyl)-7-((1-(3,5-difluorophenyl)cyclopropyl)methoxy)-8-(trifluoromethyl)-[1,2,4]triazolo[4,3-a]pyridine], the EC50 worked out at 20 nM.

Regarding `FC(F)(F)c1c(OCC2(c3cc(Cl)cc(Cl)c3)CC2)ccn2c(CC3CC3)nnc12` [Example 56, 3-(Cyclopropylmethyl)-7-((1-(3,5-dichlorophenyl)cyclopropyl)methoxy)-8-(trifluoromethyl)-[1,2,4]triazolo[4,3-a]pyridine], the EC50 was found to be 22 nM.

`FC(F)(F)c1c(O[C@H]2C[C@H](c3ccccc3)C2)ccn2c(CC3CC3)nnc12` [Example 57, 3-(Cyclopropylmethyl)-7-((1r,3r)-3-phenylcyclobutoxy)-8-(trifluoromethyl)-[1,2,4]triazolo[4,3-a]pyridine]: the 50% effective concentration (EC50) amounted to 0.5 nM.

`Clc1ccc(COc2ccn3c(CC4CC4)nnc3c2Cl)cc1` [Example 58, 8-Chloro-7-(4-chlorobenzyloxy)-3-(cyclopropylmethyl)-[1,2,4]triazolo[4,3-a]pyridine, TFA salt]: the concentration for a half-maximal effect (EC50) came out at 60 nM.

Regarding `CC(Oc1ccn2c(CC3CC3)nnc2c1Cl)c1ccc(F)cc1` (stereo not drawn) [Example 59, 8-Chloro-3-(cyclopropylmethyl)-7-(1-(4-fluorophenyl)ethoxy)-[1,2,4]triazolo[4,3-a]pyridine], the 50% effective concentration (EC50) amounted to 530 nM.

Consider `Clc1cccc(COc2ccn3c(CC4CC4)nnc3c2Cl)c1` [Example 60, 8-Chloro-7-(3-chlorobenzyloxy)-3-(cyclopropylmethyl)-[1,2,4]triazolo[4,3-a]pyridine], for which the concentration giving a half-maximal response (EC50) was determined as 18 nM.

Consider `COc1cccc(COc2ccn3c(CC4CC4)nnc3c2Cl)c1` [Example 61, 8-Chloro-3-(cyclopropylmethyl)-7-(3-methoxybenzyloxy)-[1,2,4]triazolo[4,3-a]pyridine], for which the EC50 is 40 nM.

On to `Clc1c(OCCCc2cccnc2)ccn2c(CC3CC3)nnc12` [Example 62, 8-Chloro-3-(cyclopropylmethyl)-7-(3-(pyridin-3-yl)propoxy)-[1,2,4]triazolo[4,3-a]pyridine], for which the concentration giving a half-maximal response (EC50) was 270 nM.

Take `Clc1c(OCCOc2ccccc2)ccn2c(CC3CC3)nnc12` [Example 63, 8-Chloro-3-(cyclopropylmethyl)-7-(2-phenoxyethoxy)-[1,2,4]triazolo[4,3-a]pyridine]: the half-maximal effective concentration (EC50) was 100 nM.

In the case of `Clc1c(OCCc2ccccc2)ccn2c(CC3CC3)nnc12` [Example 64, 8-Chloro-3-(cyclopropylmethyl)-7-phenethoxy-[1,2,4]triazolo[4,3-a]pyridine], the 50% effective concentration (EC50) stood at 32 nM.

As for `COc1cc(COc2ccn3c(CC4CC4)nnc3c2Cl)ccc1F` [Example 65, 8-Chloro-3-(cyclopropylmethyl)-7-(4-fluoro-3-methoxybenzyloxy)-[1,2,4]triazolo[4,3-a]pyridine], the concentration giving a half-maximal response (EC50) worked out at 110 nM.

Regarding `Clc1ccccc1COc1ccn2c(CC3CC3)nnc2c1Cl` [Example 66, 8-Chloro-7-(2-chlorobenzyloxy)-3-(cyclopropylmethyl)-[1,2,4]triazolo[4,3-a]pyridine], the EC50 worked out at 11 nM.

As to `Cc1cccc(COc2ccn3c(CC4CC4)nnc3c2Cl)c1` [Example 67, 8-Chloro-3-(cyclopropylmethyl)-7-(3-methylbenzyloxy)-[1,2,4]triazolo[4,3-a]pyridine], the EC50 worked out at 55 nM.

As for `Fc1ccccc1COc1ccn2c(CC3CC3)nnc2c1Cl` [Example 68, 8-Chloro-3-(cyclopropylmethyl)-7-(2-fluorobenzyloxy)-[1,2,4]triazolo[4,3-a]pyridine], the concentration for a half-maximal effect (EC50) is 68 nM.

With `Clc1ccc(COc2ccn3c(CC4CC4)nnc3c2Cl)cc1Cl` [Example 69, 8-Chloro-3-(cyclopropylmethyl)-7-(3,4-dichlorobenzyloxy)-[1,2,4]triazolo[4,3-a]pyridine], the EC50 came out at 32 nM.

Turning to `COc1ccc(COc2ccn3c(CC4CC4)nnc3c2Cl)cc1` [Example 70, 8-Chloro-3-(cyclopropylmethyl)-7-(4-methoxybenzyloxy)-[1,2,4]triazolo[4,3-a]pyridine], the half-maximal effective concentration (EC50) worked out at 140 nM.

As for `Fc1cccc(F)c1COc1ccn2c(CC3CC3)nnc2c1Cl` [Example 71, 8-Chloro-3-(cyclopropylmethyl)-7-(2,6-difluorobenzyloxy)-[1,2,4]triazolo[4,3-a]pyridine], the EC50 was determined as 11 nM.

For the compound `COc1cccc(F)c1COc1ccn2c(CC3CC3)nnc2c1Cl` [Example 72, 8-Chloro-3-(cyclopropylmethyl)-7-(2-fluoro-6-methoxybenzyloxy)-[1,2,4]triazolo[4,3-a]pyridine], the EC50 came out at 42 nM.

Regarding `FC(F)(F)Oc1ccc(Cl)cc1COc1ccn2c(CC3CC3)nnc2c1Cl` [Example 73, 8-Chloro-7-(5-chloro-2-(trifluoromethoxy)benzyloxy)-3-(cyclopropylmethyl)-[1,2,4]triazolo[4,3-a]pyridine], the EC50 worked out at 22 nM.

On to `COc1ccc(F)cc1COc1ccn2c(CC3CC3)nnc2c1Cl` [Example 74, 8-Chloro-3-(cyclopropylmethyl)-7-(5-fluoro-2-methoxybenzyloxy)-[1,2,4]triazolo[4,3-a]pyridine], for which the EC50 stood at 21 nM.

In the case of `Clc1c(OCc2cccc(OC3CC3)c2)ccn2c(CC3CC3)nnc12` [Example 75, 8-Chloro-7-(3-cyclopropoxybenzyloxy)-3-(cyclopropylmethyl)-[1,2,4]triazolo[4,3-a]pyridine], the EC50 amounted to 29 nM.

Turning to `Fc1cc(F)cc(COc2ccn3c(CC4CC4)nnc3c2Cl)c1` [Example 76, 8-Chloro-3-(cyclopropylmethyl)-7-(3,5-difluorobenzyloxy)-[1,2,4]triazolo[4,3-a]pyridine], the concentration for a half-maximal effect (EC50) stood at 4.1 nM.

As to `Fc1cccc(Cl)c1CCOc1ccn2c(CC3CC3)nnc2c1C(F)(F)F` [Example 80, 7-(2-Chloro-6-fluorophenethoxy)-3-(cyclopropylmethyl)-8-(trifluoromethyl)-[1,2,4]triazolo[4,3-a]pyridine], the EC50 was determined as 0.4 nM.

On to `Fc1cccc(F)c1CCOc1ccn2c(CC3CC3)nnc2c1C(F)(F)F` [Example 81, 3-(Cyclopropylmethyl)-7-(2,6-difluorophenethoxy)-8-(trifluoromethyl)-[1,2,4]triazolo[4,3-a]pyridine], for which the EC50 came out at 1.5 nM.
